Assay results reported in US4508719A, “Hydroxyimino and alkoxyimino derivatives of 1,4-dihydropyridine and anti-hypertensive compositions” (Pierrel S.p.A., priority 1982, dated 1985).
Where two headings read alike, the source gives them in different places.

Columns and labels:
in vivo = settings: mouse, iv
Experimental: Male CD1 mice from Charles River, weighing 25 g, are used. Compounds are administered intravenously (i.v.), dissolved in dimethylsulfoxide, and the volume of administration is 0.01 ml/10 g of body weight. The lethal dose, LD50 after seven days, is calculated according to the method of Litchfield and Wilcoxon (Exp. Ther. 96, 99 (1949)).

[1] = test system: taenia coli of guinea pigs, depolarized, stimulated with CaCl2; assay: Antagonistic activity to calcium in the taenia coli of guinea pigs (in vitro); assay type: cell-based, Hartley albino guinea pigs; settings: for IC50: Cavia porcellus, read-out: Ca--antagonistic activity in vitro ED50
Experimental: Hartley albino guinea pigs of average weight 450 g are used. […] The compounds are allowed to stand in contact with the preparation for ten minutes. The activities ED50 are calculated from the maximum percentage of inhibition.

[2] = taenia coli, CaCl2 10^-3 M, ten minutes contact, from maximum percentage of inhibition (for 0265B, 0246B, 0247B, 0270B, 0224A independent of time of appearance)

Row | SMILES | LD50 at 168 h (in vivo) [mg/kg] | IC50 [1, 2] [nM] | inhibition of contractions due to CaCl2 after repeated washing of the tissue ([1]; taenia coli) | IC50 [1] [nM]
1 | COC(=O)C1=C(C)NC(C)=C(C(C)=NOCCN(C)Cc2ccccc2)C1c1cccc([N+](=O)[O-])c1 (centres unmarked) [0224A, Methyl 2,6-dimethyl-3-[1-(2-N-benzyl-N-methylamino)ethoxy-imino]ethyl-4-(3-nitrophenyl)-1,4-dihydropyridin-5-carboxylate] | 3.3 | 18 | increases progressively in spite of repeated washing of the tissue | –
2 | COC(=O)C1=C(C)NC(C)=C(C(C)=NO)C1c1cccc([N+](=O)[O-])c1 (centres unmarked) [0227A, Methyl 2,6-dimethyl-3-(1-hydroxyimino)ethyl-4-(3-nitrophenyl)-1,4-dihydropyridine-5-carboxylate] | 15.2 | 270 | – | –
3 | CCOC(=O)CON=C(C)C1=C(C)NC(C)=C(C(=O)OC)C1c1cccc([N+](=O)[O-])c1 (centres unmarked) [0234A, Methyl 2,6-dimethyl-3-[1-(ethoxycarbonyl)methoxyimino]ethyl-4-(3-nitrophenyl)-1,4-dihydro-pyridin-5-carboxylate] | 17.3 | 29 | – | –
4 | CCON=C(C)C1=C(C)NC(C)=C(C(=O)OC)C1c1cccc([N+](=O)[O-])c1 (centres unmarked) [0235A, Methyl 2,6-dimethyl-3-(1-ethoxyimino)ethyl-4-(3-nitrophenyl)-1,4-dihydropyridin-5-carboxylate] | 30.6 | 7.4 | – | –
5 | C=CCON=C(C)C1=C(C)NC(C)=C(C(=O)OC)C1c1cccc([N+](=O)[O-])c1 (centres unmarked) [0245B] | 35.4 | 4.7 | – | –
6 | CCCCON=C(C)C1=C(C)NC(C)=C(C(=O)OC)C1c1cccc([N+](=O)[O-])c1 (centres unmarked) [0246B] | 37.5 | 7 | increases progressively in spite of repeated washing of the tissue | –
7 | COC(=O)C1=C(C)NC(C)=C(C(C)=NOCc2ccccc2)C1c1cccc([N+](=O)[O-])c1 (centres unmarked) [0247B] | 28.9 | 4.8 | increases progressively in spite of repeated washing of the tissue | –
8 | CON=C(C)C1=C(C)NC(C)=C(C(=O)OC)C1c1cccc([N+](=O)[O-])c1 (centres unmarked) [0251A, Methyl 2,6-dimethyl-3-(1-methoxyimino)ethyl-4-(3-nitrophenyl)-1,4-dihydropyridin-5-carboxylate] | 27.3 | 26 | – | –
9 | CCOCCON=C(C)C1=C(C)NC(C)=C(C(=O)OC)C1c1cccc([N+](=O)[O-])c1 (centres unmarked) [0254B] | 35 | 5.9 | – | –
10 | COC(=O)C1=C(C)NC(C)=C(C(C)=NOC(C)C)C1c1cccc([N+](=O)[O-])c1 (centres unmarked) [0265B] | 27.6 | 4.4 | increases progressively in spite of repeated washing of the tissue | –
11 | COC(=O)C1=C(C)NC(C)=C(C(C)=NOC2CCCC2)C1c1cccc([N+](=O)[O-])c1 (centres unmarked) [0270B] | 70.3 | 5.6 | increases progressively in spite of repeated washing of the tissue | –
12 | COC(=O)C1=C(C)NC(C)=C(C(C)=NOCCN(C)C)C1c1cccc([N+](=O)[O-])c1 (centres unmarked) [0274B] | 38.3 | 510 | – | –
13 | COC(=O)C1=C(C)NC(C)=C(C(C)=NOCCN2CCCCC2)C1c1cccc([N+](=O)[O-])c1 (centres unmarked) [0276B] | 22.7 | 220 | – | –
14 | CCOCCON=C(COC)C1=C(C)NC(C)=C(C(=O)OC)C1c1cccc([N+](=O)[O-])c1 (centres unmarked) [0286C] | > 160 | 370 | – | –
15 | COC(=O)C1=C(C)NC(C)=C(C(=O)OCCN(C)Cc2ccccc2)C1c1cccc([N+](=O)[O-])c1 (centres unmarked) [Nicardipine, reference compound] | 17.4 | 2.3 | – | –
16 | COC(=O)C1=C(C)NC(C)=C(C(=O)OC)C1c1ccccc1[N+](=O)[O-] [Nifedipine, reference compound] | – | – | – | 2.6
17 | CCOC(=O)C1=C(C)NC(C)=C(C(=O)OC)C1c1cccc([N+](=O)[O-])c1 (centres unmarked) [Nitrendipine, reference compound] | 34.5 | 1.9 | – | –
